Literature values, collected in patent publication US9358223B2, “Formulation for preventing or reducing bleeding at a surgical site” (WARSAW ORTHOPEDIC, INC., priority 2009, dated 2016).

System: blood pressure
Settings: perioperative period, patients undergoing rhytidectomy

Clc1cccc(Cl)c1N=C1NCCN1 [Clonidine, 2,6-dichloro-N-2-imidazolidinyldenebenzenamine]
regulation of blood pressure: effectively regulate blood pressure
